Series [1] relates to IL-6 cytokine output from THP-1s. The series is described as follows: THP-1 AlphaLISA IL-6 cytokine assay. The class given is cell-based, human. To be noted: Homo sapiens; PMA-differentiated THP-1 cells, LPS 24 hr then Nigericin 1 hour. Put shortly: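 THP-1 cells, PMA-differentiated 72 h; 30 min compound pre-incubation; LPS 24 h; nigericin 1 h; 37 °C/5% CO2. Supernatants read by AlphaLISA kit. IC50 from % inhibition vs concentration, normalised to +LPS (high) and −LPS (low) controls.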
For orientation: Bead proximity is the source of the signal in Alpha formats.

The nature of series [2]: Mouse pharmacokinetic study, oral administration. The class given is in vivo. To be noted: for concentration at 0.25 h / concentration at 0.5 h / concentration at 1 h / concentration at 2 h / concentration at 4 h / concentration at 8 h / concentration at 24 h / concentration at 0.083 h / concentration at 6 h: male, C57BL/6, mouse, plasma, po, 100 mg/kg, male C57BL/6 mice, oral gavage 100 mg/kg; for concentration at 0.25 h: read-out: Parent compound concentrations following oral administration, Time 0.25 h; for concentration at 0.5 h: read-out: Parent compound concentrations following oral administration, Time 0.5 h; for concentration at 1 h: read-out: Parent compound concentrations following oral administration, Time 1 h; for concentration at 2 h: read-out: Parent compound concentrations following oral administration, Time 2 h; for concentration at 4 h: read-out: Parent compound concentrations following oral administration, Time 4 h; for concentration at 8 h: read-out: Parent compound concentrations following oral administration, Time 8 h; for concentration at 24 h: read-out: Parent compound concentrations following oral administration, Time 24 h; for concentration at 0.083 h: read-out: Parent compound concentrations following oral administration, Time 0.083 h; for concentration at 6 h: read-out: Parent compound concentrations following oral administration, Time 6 h. The protocol: Pharmacokinetic studies were carried out in 6-8-week-old male C57BL/6 mice having free access to food and water. Intravenous dosing was conducted at 10 mg/kg (5 mL/kg; vehicle: 10% DMSO-90% (25% HP-13-CD in water)) via tail vein injection, with sampling at 3 min, 8 min, 15 min, 30 min, 1, 2, 4, 6 and 8 hours, i.e., 9 time points in total (N=3/time point), using semi-serial bleeding for plasma. Oral compound administration, via gavage, was carried out at 100 mg/kg (10 mL/kg; vehicle: 5% DMSO-95% (0.5% HPMC+0.1% Tween 80 in water)), with sampling at 5 min, 15 min, 30 min, 1, 2, 4, 6, 8 and 24 hours, i.e., 9 time points in total (N=3/time point), using semi-serial bleeding for plasma.
For both intravenous and oral routes, the mice were restrained manually at the designated time points, with ca. 110 μL of blood being taken into K2EDTA tubes via the facial vein. Blood samples were put on ice and centrifuged to obtain plasma samples from which the concentration at each time point was measured by LC-MS/MS.

The nature of series [3]: Mouse pharmacokinetic study, intravenous dosing. The class given is in vivo. To be noted: 10 mg/kg i.v.; for concentration at 0.05 h / concentration at 0.133 h / concentration at 0.25 h / concentration at 0.5 h / concentration at 1 h / concentration at 2 h / concentration at 4 h / concentration at 6 h / concentration at 8 h: male, C57BL/6, mouse, iv, plasma, read-out: Parent compound concentration following intravenous administration. Put shortly: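 Oral arm: 100 mg/kg gavage in 5% DMSO with 0.5% HPMC/0.1% Tween 80, blood from 5 min to 24 h. Intravenous arm: 10 mg/kg tail-vein injection in 10% DMSO with HP-β-CD, blood from 3 min to 8 h. Male C57BL/6 mice; LC-MS/MS on plasma.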

SMILES strings stand for the structures. Where a name gives a salt, the structure may show the parent alone.

`C=C(CC(=O)OCCCCCCCC)C(=O)OCCC#N` [Example 1, 1-(2-cyanoethyl) 4-octyl 2-methylenesuccinate]: it took 6 µM to reach half-maximal inhibition in series [1] (IC50).

On to `C=C(CC(=O)OCCCCCCCC)C(=O)OCCS(C)(=O)=O` [Example 2, 1-(2-(methylsulfonyl)ethyl) 4-octyl 2-methylenesuccinate], for which, in series [1], the half-inhibitory concentration (IC50) (commonly the point on the concentration scale where inhibition reaches its midpoint) came to 2.9 µM.

In turn, `C=C(CC(=O)OCCCCCCCC)C(=O)OCCC(F)(F)F` [Example 3, 4-octyl 1-(3,3,3-trifluoropropyl) 2-methylenesuccinate] registered an IC50 in series [1] of 56.2 µM.

`C=C(CC(=O)OCCCCCCCC)C(=O)OC1COC1` [Example 4, 4-octyl 1-(oxetan-3-yl) 2-methylenesuccinate] returned an IC50 in series [1] of 3.6 µM.

In series [1], `C=C(CC(=O)OCCCCCCCC)C(=O)OCCN1C(=O)CCC1=O` [Example 9, 1-(2-(2,5-dioxopyrrolidin-1-yl)ethyl) 4-octyl 2-methylenesuccinate] displayed an IC50 of 2.2 µM.

As to `C=C(CC(=O)OCCCOc1ccccc1)C(=O)OCCC(=O)O` [Example 86, 3-((2-methylene-4-oxo-4-(3-phenoxypropoxy)butanoyl)oxy)propanoic acid], the IC50 in series [1] came to 15.7 µM. Further, in series [2], the concentration at 0.25 h turned out to be 41 ng/mL, the concentration at 0.5 h is 943 ng/mL, the concentration at 1 h was determined as 686 ng/mL and the concentration at 2 h is 149 ng/mL. Also, in series [2], the concentration at 4 h was 19 ng/mL, the concentration at 8 h was under 3 ng/mL and the concentration at 24 h is under 3 ng/mL.

Regarding `C=C(CC(=O)O[C@H](CC)CCCCC)C(=O)OCC(=O)O` [Example 178, (R)-2-(2-methylene-4-(octan-3-yloxy)-4-oxobutanoyloxy)acetic acid], in series [3], the concentration at 0.05 h worked out at 33400 ng/mL, the concentration at 0.133 h is 15500 ng/mL, the concentration at 0.25 h was determined as 5680 ng/mL and the concentration at 0.5 h is 2850 ng/mL. For the same molecule, in series [3], the concentration at 1 h came out at 594 ng/mL, the concentration at 2 h was 61 ng/mL, the concentration at 4 h was 8.2 ng/mL and the concentration at 6 h is under 4 ng/mL. Further, in series [3], the concentration at 8 h was under 4 ng/mL. Moreover, in series [2], the concentration at 0.083 h was determined as 67100 ng/mL, the concentration at 0.25 h worked out at 27100 ng/mL, the concentration at 0.5 h is 27900 ng/mL and the concentration at 1 h came out at 11000 ng/mL. For the same molecule, in series [2], the concentration at 2 h came to 3660 ng/mL, the concentration at 4 h was 1460 ng/mL, the concentration at 6 h worked out at 2240 ng/mL and the concentration at 8 h was 639 ng/mL. Moreover, the concentration at 24 h in series [2] was under 4 ng/mL.

As to `COC(=O)/C=C/C(=O)OC` [dimethyl fumarate, reference compound], in series [1], it took 9.3 µM to reach half-maximal inhibition (IC50).

Molecule `C=C(CC(=O)OC)C(=O)OC` [dimethyl itaconate, reference compound] had an IC50 in series [1] of 100 µM. In series [3], the concentration at 0.05 h came out at 874 ng/mL, the concentration at 0.133 h is under 24 ng/mL, the concentration at 0.25 h is under 24 ng/mL and the concentration at 0.5 h was under 24 ng/mL. In addition, in series [3], the concentration at 1 h is under 24 ng/mL, the concentration at 2 h is under 24 ng/mL, the concentration at 4 h is under 24 ng/mL and the concentration at 6 h is under 24 ng/mL. In addition, the concentration at 8 h in series [3] was under 24 ng/mL. For the same molecule, the “Quantifiability in plasma following intravenous dosing” value in series [3] (mouse) was “only quantifiable at one timepoint”. In series [2], the concentration at 0.083 h is under 24 ng/mL, the concentration at 0.25 h was under 24 ng/mL, the concentration at 0.5 h is under 24 ng/mL and the concentration at 1 h is under 24 ng/mL. Also, in series [2], the concentration at 2 h is under 24 ng/mL, the concentration at 4 h is under 24 ng/mL, the concentration at 6 h is under 24 ng/mL and the concentration at 8 h was under 24 ng/mL. The concentration at 24 h in series [2] is under 24 ng/mL. The “Quantifiability in plasma following oral administration” value in series [2] (mouse, 100 mg/kg oral) is on record as “below the limit of quantification at all timepoints”.

Values taken from patent US12390437B2, “Itaconic acid derivatives and uses thereof intreating an inflammatory disease or a disease associated with an undesirable immune response” (Sitryx Therapeutics Limited, priority 2019, dated 2025).
